Measured values: ChEMBL document CHEMBL2046380, “Synthesis and structure-activity relationship of disubstituted benzamides as a novel class of antimalarial agents” (Bioorg Med Chem Lett, 2012)

How the values were obtained:
Plasmodium falciparum [1] = assay: Antimalarial activity against […] incubated for 72 hrs by DNA staining based MARK1 growth inhibition assay; assay type: functional, organism-based
Plasmodium falciparum [2] = assay: Antimalarial activity against chloroquine-sensitive Plasmodium falciparum 3D7 incubated for 72 hrs by DNA staining based MAR3D7 growth inhibition assay; assay type: functional, organism-based; conditions: 3D7, 72 h
HepG2 = assay: Cytotoxicity against human HepG2 cells after 72 hrs by […] CellTiterGlo reagent assay; assay type: cell-based; conditions: HepG2, 72 h
Raji = assay: Cytotoxicity against human Raji cells after 72 hrs by […] CellTiterGlo reagent assay; assay type: cell-based
BJ = assay: Cytotoxicity against human BJ cells after 72 hrs by […] CellTiterGlo reagent assay; assay type: cell-based
HEK293 = assay: Cytotoxicity against human HEK293 cells after 72 hrs by […] CellTiterGlo reagent assay; assay type: cell-based; conditions: HEK293, 72 h

Row | Structure (SMILES) | EC50 (Plasmodium falciparum [1]) [µM] | EC50 (Plasmodium falciparum [2]) [µM] | EC50 (HepG2) [µM] | EC50 (Raji) [µM] | EC50 (BJ) [µM] | EC50 (HEK293) [µM]
1 | COC(=O)c1cc(-c2cccs2)nc2ccccc12 | > 15 | > 15 | > 26 | > 26 | > 26 | > 26
2 | O=C(O)c1cc(-c2ccco2)nc2ccccc12 | > 15 | > 15 | > 26 | > 26 | > 26 | > 26
3 | CC(C)N(Cc1ccc(OCCCCCC(=O)O)cc1)C(=O)c1ccc(-c2ccc3c(c2)OCO3)cc1 | 1.82 | > 15 | > 26 | > 26 | > 26 | > 26
4 | CC(C)N(Cc1ccccc1OCCCCCC(=O)O)C(=O)c1ccc(-c2ccc3c(c2)OCO3)cc1 | > 15 | > 15 | > 26 | > 26 | > 26 | > 26
5 | CCCN(Cc1cccc(OCCCCCC(=O)O)c1)C(=O)c1ccc(-c2ccc3c(c2)OCO3)cc1 | 0.995 | 0.174 | > 26 | > 26 | > 26 | > 26
6 | CCCN(Cc1ccc(OCCCCCC(=O)O)cc1)C(=O)c1ccc(-c2ccc3c(c2)OCO3)cc1 | 0.928 | > 15 | > 26 | > 26 | > 26 | > 26
7 | CCCN(Cc1ccccc1OCCCCCC(=O)O)C(=O)c1ccc(-c2ccc3c(c2)OCO3)cc1 | > 15 | > 15 | > 26 | > 26 | > 26 | > 26
8 | CCOC(=O)CCCCCOc1cccc(CN(C(=O)c2ccc(-c3ccc4c(c3)OCO4)cc2)C(C)C)c1 | > 12.5 | > 12.5 | > 22.6 | > 22.6 | > 22.6 | > 22.6
9 | CCOC(=O)CCCCCOc1ccc(CN(C(=O)c2ccc(-c3ccc4c(c3)OCO4)cc2)C(C)C)cc1 | > 15 | > 15 | > 26 | > 26 | > 26 | > 26
10 | CCOC(=O)CCCCCOc1ccccc1CN(C(=O)c1ccc(-c2ccc3c(c2)OCO3)cc1)C(C)C | > 15 | > 15 | > 26 | > 26 | > 26 | > 26
11 | CCCN(Cc1cccc(OCCCCCC(=O)OCC)c1)C(=O)c1ccc(-c2ccc3c(c2)OCO3)cc1 | > 15 | > 15 | > 26 | > 26 | > 26 | > 26
12 | CCCN(Cc1ccc(OCCCCCC(=O)OCC)cc1)C(=O)c1ccc(-c2ccc3c(c2)OCO3)cc1 | > 15 | > 15 | > 26 | > 26 | > 26 | > 26
13 | CCCN(Cc1ccccc1OCCCCCC(=O)OCC)C(=O)c1ccc(-c2ccc3c(c2)OCO3)cc1 | > 15 | > 15 | > 26 | > 26 | > 26 | > 26
14 | CCOC(=O)CCCCCOc1cccc(CN(C(=O)c2ccc(Br)cc2)C(C)C)c1 | > 15 | > 15 | > 26 | > 26 | > 26 | > 26
15 | CCCN(Cc1ccc(OCCCCCC(=O)OCC)cc1)C(=O)c1ccc(Br)cc1 | > 15 | > 15 | > 26 | > 26 | > 26 | > 26
16 | CCOC(=O)CCCCCOc1ccccc1CNC(C)C | > 15 | > 15 | > 26 | > 26 | > 26 | > 26
17 | CC(C)N(Cc1cccc(OCCCCCC(=O)O)c1)C(=O)c1ccc(-c2ccc3c(c2)OCO3)cc1 | 0.438 | 0.0604 | > 26 | > 26 | > 26 | > 26
18 | CCOC(=O)CCCCCOc1cccc(CNC(C)C)c1 | > 15 | > 15 | > 26 | > 26 | > 26 | > 26
19 | CCOC(=O)CCCCCOc1ccc(CNC(C)C)cc1 | > 15 | > 15 | > 26 | > 26 | > 26 | > 26
20 | CCCNCc1ccccc1OCCCCCC(=O)OCC | > 15 | > 15 | > 26 | > 26 | > 26 | > 26
21 | CCCNCc1cccc(OCCCCCC(=O)OCC)c1 | > 15 | > 15 | > 26 | > 26 | > 26 | > 26
22 | CCCNCc1ccc(OCCCCCC(=O)OCC)cc1 | > 15 | > 15 | > 26 | > 26 | > 26 | > 26
23 | CCOC(=O)CCCCCOc1ccccc1C=O | > 15 | > 15 | > 26 | > 26 | > 26 | > 26

Row | Structure (SMILES) | EC50 (Plasmodium falciparum [1]) [µM] | EC50 (Plasmodium falciparum [2]) [µM] | EC50 (HepG2) [µM] | EC50 (Raji) [µM] | EC50 (BJ) [µM] | EC50 (HEK293) [µM]
24 | CCOC(=O)CCCCCOc1cccc(C=O)c1 | > 15 | > 15 | > 26 | > 26 | > 26 | > 26
25 | CCOC(=O)CCCCCOc1ccc(C=O)cc1 | > 15 | 0.0584 | > 26 | > 26 | > 26 | > 26
26 | CCOC(=O)CCCCCOc1ccc(C(O)O)cc1 | > 15 | > 15 | > 27.2 | > 27.2 | > 27.2 | > 27.2
27 | CCOC(=O)CCCCCOc1ccc(CO)cc1 | > 15 | > 15 | > 27.2 | > 27.2 | > 27.2 | > 27.2
28 | [N-]=[N+]=NC[C@H](O)c1ccc2c(c1)OCO2 | > 7.51 | > 7.51 | > 13 | > 13 | > 13 | > 13
29 | C[C@@H](NC(=O)c1ccc(-c2ccc3c(c2)OCO3)cc1)c1ccccc1 | > 15 | > 15 | > 26 | > 26 | > 26 | > 26
30 | CC(C)N(C(=O)c1ccc(-c2ccc3c(c2)OCO3)cc1)[C@H](C)c1ccccc1 | > 15 | > 15 | > 26 | > 26 | > 26 | > 26
31 | COc1ccc(C(=O)C(Br)N=[N+]=[N-])cc1OC (stereo not drawn) | > 7.51 | > 7.51 | > 13 | > 13 | > 13 | > 13
32 | COc1cc(C)ccc1OCCOc1ccccc1F | > 15 | > 15 | > 26 | > 26 | > 26 | > 26
33 | O=C(Nc1ccc2c(c1)OCO2)c1cc(-c2cccs2)nc2ccccc12 | > 15 | > 15 | > 26 | > 26 | > 26 | > 26
34 | O=C(O)c1cc(-c2cccs2)nc2ccccc12 | 0.822 | 0.664 | > 26 | > 26 | > 26 | > 26
35 | COc1ccc(-c2cc(C(=O)O)c3ccccc3n2)cc1OC | > 15 | > 15 | > 26 | > 26 | > 26 | > 26
36 | C=CCCN(CCc1ccc(OC)c(OC)c1)C(=O)CC(C)=O | > 7.51 | > 7.51 | > 13 | > 13 | > 13 | > 13
37 | CCOC(=O)CC(=O)NCCc1ccc(OC)c(OC)c1 | > 7.51 | > 7.51 | > 13 | > 13 | > 13 | > 13
38 | C=CCCC(=O)NCC1(c2ccc3c(c2)OCO3)OCCO1 | > 7.51 | > 7.51 | > 13 | > 13 | > 13 | > 13
39 | CCOC(OCC)C(=O)NCCc1ccc(OC)c(OC)c1 | > 7.51 | > 7.51 | > 13 | > 13 | > 13 | > 13
40 | COc1ccc(CCNC(=O)CCO[Si](C)(C)C(C)(C)C)cc1OC | > 7.51 | > 2.58 | 4.89 | 6.9 | > 13 | > 13
41 | CCOC(=O)CC(=O)NCC(OCC)(OCC)c1ccc2c(c1)OCO2 | > 7.51 | > 7.51 | > 13 | > 13 | > 13 | > 13
42 | C=CCCC(=O)NC[C@H](O)c1ccc2c(c1)OCO2 | > 7.51 | > 7.51 | > 13 | > 13 | > 13 | > 13
43 | CC(C)(C)OC(=O)NCC(OC(=O)C(O)CO)c1ccc2c(c1)OCO2 (stereo not drawn) | > 7.51 | > 7.51 | > 13 | > 13 | > 13 | > 13
44 | CC(C)N(Cc1cccc(OCCCCCC(=O)O)c1)C(=O)c1ccc(-c2cccc3ccccc23)cc1 | > 15 | > 15 | > 26 | > 26 | – | > 26
45 | CCOC(=O)CCCCCOc1cccc(CN(C(=O)c2ccc(-c3cccc(C(F)(F)F)c3)cc2)C(C)C)c1 | > 15 | > 15 | > 26 | > 26 | – | > 26
46 | CCOC(=O)CCCCCOc1cccc(CN(C(=O)c2ccc(-c3cccc([N+](=O)[O-])c3)cc2)C(C)C)c1 | > 15 | > 15 | > 26 | > 26 | – | > 26
